In US11666562B2, “Ilaprazole for inhibiting the release of enveloped viruses from cells” (Northwestern University, priority 2020, dated 2023):

Molecular target: T1, Tsg101-UEV (Tsg101 amino acids 1-145) (Homo sapiens, UniProt Q99816)
T1 construct: The recombinant Tsg101 fragment (amino acids 1-145), prepared as described above in Materials and Methods; His6 (N); thrombin protease cleavage site (N); made in house; host or cells: E. coli ROSETTA 2 (DE3) pLysS
T1 sequence (Q99816 1-145): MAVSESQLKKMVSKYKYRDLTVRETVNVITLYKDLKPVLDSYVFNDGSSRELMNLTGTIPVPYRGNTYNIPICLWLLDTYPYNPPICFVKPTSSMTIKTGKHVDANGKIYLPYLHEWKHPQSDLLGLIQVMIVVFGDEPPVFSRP
Assay: Fluorescence thermal shift (FTS) assay, binding to Tsg101-UEV
Conditions: for Tm (melting temperature) shift of Tsg101-UEV: FTS, Sypro-Orange, no DTT
Procedure: The fluorescence-based thermal shift assay is based on the observation that a protein unfolds upon heating, exposing the hydrophobic residues within its tertiary structure. The unfolding temperature (Tm) is determined by the protein's primary sequence and solution environment. The FTS assay uses a fluorescent dye sensitive to a hydrophobic environment to probe protein stability and its modulation by small molecule ligands. The dye has a low fluorescence quantum yield when in a polar environment. Once in contact with the hydrophobic core normally buried within a folded protein that has become exposed during the thermal unfolding (melting) process, the quantum yield of the dye increases, thus providing a reporting signal. Furthermore, a protein's stability can be affected by ligand binding, resulting in an increase or decrease in its melting temperature. FTS assay uses the Tm shift upon binding of a ligand to identify hit compounds for drug discovery.
Identification of prazole compounds that bind the UEV ubiquitin-binding domain of Tsg101. We screened chemical compounds using a fluorescence thermal shift (FTS) assay (27, 28) to identify small molecules that bind directly to a truncated form of Tsg101 (amino acids 1-145) which contains the Ubiquitin E2 variant (UEV) ubiquitin-binding domain (FIG. 1). The UEV, which contains the PT/SAP binding domain in addition to the ubiquitin-binding domain, provides chaperone functions to HIV-1 Gag that is independent of its interaction with the PS/TAP motif, and contains the prazole binding site (5). This truncated Tsg101, called Tsg101-UEV, was used because full-length Tsg101 has significant solubility issues in aqueous solution. Tsg101 is an adaptor protein and thus lacks a readily deployable functional assay, making FTS a tractable approach to identify interacting compounds. FTS monitors protein thermal denaturation using SYPRO-Orange, a dye which fluoresces when bound to hydrophobic surfaces, which allows monitoring of the changes in hydrophobic surface exposure during protein denaturation (27). Since ligand binding affects protein thermal stability, it can be detected through modulation of protein thermal denaturation (melting) as a shift in melting temperature (Tm). Tsg101-UEV has a well-defined melting curve suitable for FTS. We used the FTS assay to identify compounds that bind to Tsg101-UEV.
Purification of Tsg101 (1-145). N-terminally His6-tagged Tsg101 UEV domain (amino acids 1-145), called Tsg101-UEV, was encoded in a pET-28b vector (Novagen—EMD Millipore), which also included a thrombin protease cleavage site (His6-Thrombin Site-Tsg101, 1-145). Tsg101-UEV was grown in LB broth with Kanamycin (30 μg/ml) in ROSETTA 2 (DE3) pLysS E. coli competent cells (EMD Millipore) and induced with 1 mM IPTG at room temperature for 3 h. Bacteria were collected by centrifugation at 4,000 rpm for 10 min at […]. Bacteria were suspended in 50 ml binding buffer (20 mM Tris-HCl, pH 7.9, 0.5 M NaCl, 5 mM Imidazole) with 1 mM PMSF, 0.1% NP40, and a Protease Inhibitor Cocktail Tablet (Roche) and sonicated for 3.5 min on ice. The sonicate was spun at 9,000 rpm for 1 h at […] in a Sorvall centrifuge. The supernatant was collected and passed through a 1.5 ml Ni-NTA Agarose column. The column was washed with 20 mM Tris-HCl, pH 7.9, 0.5 M NaCl, 30 mM Imidazole wash buffer. […] Protein concentration was determined with a Nano Drop Spectrophotometer at […]. […]

Row | SMILES | Tm shift of Tsg101-UEV on addition of DTT (FTS with reducing agent DTT) | Tm (melting temperature) shift of Tsg101-UEV | Tm (melting temperature) shift of Tsg101-UEV (listed as tenatoprazole)
1 | COc1ccnc(C[S+]([O-])c2nc3ccc(-n4cccc4)cc3[nH]2)c1C (stereo not shown) [Ilaprazole, 2-[(4-methoxy-3-methylpyridin-2-yl)methylsulfinyl]-6-pyrrol-1-yl-1H-benzimidazole] | blocked by the addition of DTT | largest thermal shift | 
2 | COc1ccc2[nH]c([S+]([O-])Cc3ncc(C)c(OC)c3C)nc2n1 (stereo not shown) [Tenatoprazole] |  | dose-dependent shift in the Tm | destabilizes the native protein structure
